From PubChem BioAssay (NCI)
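The compound was tested at five concentrations on cells cultured in 96-well plates, with a 48-hour exposure period. Definition used: TGI = concentration required for complete inhibition of growth.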

What was measured:
Experiment in all cases: NCI tumour cell line growth inhibition, 48 h
[1] = test system: KM12 colon
[2] = test system: M14 melanoma
[3] = test system: HOP-62 NSCLC
[4] = test system: SR leukemia
[5] = test system: SW-620 colon
[6] = test system: LXFL 529 NSCLC
[7] = test system: TK-10 renal
[8] = test system: ACHN renal
[9] = test system: LOX IMVI melanoma
[10] = test system: HCT-116 colon
[11] = test system: NCI-H23 lung
[12] = test system: SNB-78 CNS
[13] = test system: NCI/ADR-RES ovarian
[14] = test system: UACC-257 melanoma
[15] = test system: U251 CNS
[16] = test system: P388/ADR leukemia
[17] = test system: HOP-18 NSCLC
[18] = test system: MCF7 breast
[19] = test system: A498 renal
[20] = test system: SK-MEL-5 melanoma

Measured: TGI

Cc1cc2c(C(C)C)c(O)c(O)c(C=Nc3ccccc3)c2c(O)c1-c1c(C)cc2c(C(C)C)c(O)c(O)c(C=Nc3ccccc3)c2c1O
> 100 µM: [1] | [2] | [3] | [4] | [5] | [6] | [7] | [8] | [9] | [10]

Cc1c(N=NN(C)C)cc[n+]([O-])c1C
not listed: [2] | [4] | [6] | [7] | [8]
> 100 µM: all other assays above
